Assay results as given in ChEMBL document CHEMBL1157539, “Thousands of chemical starting points for antimalarial lead identification” (Nature, 2010).

Each compound was assayed on Plasmodium falciparum (assay: GSK_TCMDC: Inhibition of Plasmodium falciparum 3D7 in whole erythrocytes, using parasite LDH activity as an index of growth.). Conditions: Plasmodium falciparum, 3D7.
Type: functional, organism-based
For `CN(c1ccccc1)c1ccnc(NC(=N)Nc2ccc(Cl)cc2)n1`, the XC50 was 1090 nM.
`Nc1cccc(CNCc2cccc(-c3cccc(-c4nc5cc(F)ccc5[nH]4)c3)c2)c1` was tested, and the XC50 was 692 nM.
In the case of `COC(=O)c1ccc(CC(C)NCC(O)c2cccc(I)c2)cc1` (stereo unspecified), the XC50 was 1320 nM.
Compound `O=C(c1cc(C(=O)Nc2ccc(F)cc2)c(=O)n(-c2ccc(F)cc2)c1)c1cc(Cl)ccc1O` has an XC50 of 219 nM.
`CCn1c(=O)c(C(=O)Nc2cc(Cl)c(OC)cc2OC)nc2ccccc21` showed an XC50 of 244 nM.
Work on `COc1ccc(-c2nc(NC(=O)Cc3coc4cc(OC)ccc34)sc2C)cc1` yielded an XC50 of 609 nM.
Work on `O=C(Nc1cccc(-c2nn3ccccc3c2-c2ccnc(Nc3ccc(NCCCN4CCOCC4)c(F)c3)n2)c1)c1c(F)cccc1F` yielded an XC50 of 259 nM.
In the case of `CC(NC(=O)c1ccc(O)c(-c2ccc(Cl)c(Cl)c2)c1)C(=O)NCCN1CCCC1` (stereo unspecified), the XC50 was 759 nM.
`O=C(/C=C/c1ccc(Cl)c(Cl)c1)NCCCCCCN1CCCN(C(=O)Nc2cccc(Cl)c2)CC1` gave an XC50 of 855 nM.
`COc1ccc(C(=O)C2CC2CN2CC=C(c3c[nH]c4ccc(OC)nc34)CC2)cc1` (stereo unspecified) showed an XC50 of 479 nM.
With `Cc1cc(NC(=O)NCCN2CCC(NS(=O)(=O)c3ccccc3Cl)C2)c2ccccc2n1` (stereo unspecified) the XC50 was 815 nM.
`Cc1cccc2nc(-c3ccc(-c4cccc(CN5CCC(CCN6CCCCC6)CC5)c4)s3)[nH]c12` showed an XC50 of 140 nM.
Work on `COc1ccc(Cc2c(Cl)nc3nc(N)nc(N)c3c2C)cc1` yielded an XC50 of 1090 nM.
`c1ccc(CN2CCN(CCCCNc3c4ccccc4nc4ccccc34)CC2)cc1` showed an XC50 of 117 nM.
With `O=C(NC1CCN(Cc2ccccc2O)C1)c1ccc(-c2ccccc2)cc1` (stereo unspecified) the XC50 was 838 nM.
`O=C(NCc1cccnc1)C(c1cc2ccccc2o1)N1CCN(C(c2ccccc2)c2ccccc2)CC1` (stereo unspecified) showed an XC50 of 713 nM.
With `COc1cc(Cc2cnc(N)nc2N)cc(OC)c1OCCCCCN1C(=O)c2ccccc2C1=O` the XC50 was 618 nM.
`Cc1cc(OCC2CCN(c3ncc(C(=O)NC4CC4)cc3Cl)CC2)ccc1F` showed an XC50 of 789 nM.
Work on `O=C(NCCCCCN1CCC(c2c[nH]c3ccccc23)CC1)Nc1ccc(Cl)c(Cl)c1` yielded an XC50 of 920 nM.
In the case of `COc1cc2nc(NCC3CCCO3)n3nc(-c4ccccc4)nc3c2cc1OC` (stereo unspecified), the XC50 was 211 nM.
`CCN(CCCN1CCCCC1)c1nccc(Nc2ccc(Cl)cc2)n1` showed an XC50 of 1190 nM.
`CS(=O)(=O)N(c1ccccc1)c1cc(C(=O)N[C@@H](Cc2ccccc2)[C@H](O)CNC2CC2)cc(N2CCCC2=O)c1` was tested, and the XC50 was 305 nM.
Work on `CC(=O)Oc1cc(C)ccc1C1CCN(CCCCNC(=O)c2ccc(-c3ccc(C(F)(F)F)cc3)cc2)CC1` yielded an XC50 of 646 nM.
With `O=C(Nc1ccc(Cn2ncc(N3CCCNCC3)c(Cl)c2=O)cc1)Nc1cccc(C(F)(F)F)c1` the XC50 was 640 nM.
In the case of `Cc1cc(-c2ccc(CNCCc3cccs3)cc2)ccc1S(=O)(=O)NCc1ccccc1`, the XC50 was 1140 nM.
Work on `CCN(CCCN1CCCCC1)c1cc(C)nc(Nc2ccc(Oc3ccccc3)cc2)n1` yielded an XC50 of 298 nM.
With `O=S(=O)(c1ccc(Oc2ccccc2)cc1)N(CCC(O)(C(F)(F)F)C(F)(F)F)Cc1cccc(O)c1` the XC50 was 491 nM.
`COC(=O)C(c1ccc(NC(=O)[C@H](CC(C)C)NC(=O)OC(C)(C)C)cc1)c1ccc(NC(=O)[C@H](CC(C)C)NC(=O)OC(C)(C)C)cc1` showed an XC50 of 348 nM.
`CC(=O)c1ccc(NC(=O)Nc2ccc(N(C)c3ccnc(Nc4cccc(CS(C)(=O)=O)c4)n3)cc2)cc1` was tested, and the XC50 was 122 nM.
Work on `CCCOc1cc(NC(=O)Nc2ccnc3ccccc23)cc(OCCC)c1` yielded an XC50 of 732 nM.
Compound `CN(C)Cc1cccc(-c2ccc(NC(=O)c3ccc4c(=O)n(Cc5ccoc5)cnc4c3)cc2)c1` has an XC50 of 770 nM.
Work on `Cc1ccccc1CNc1nccc(NCCC(=O)Nc2ccccc2)n1` yielded an XC50 of 892 nM.
With `Cc1nnsc1C(=O)Nc1cccc(-c2ccc(-c3nc4cc(F)ccc4[nH]3)cc2)c1` the XC50 was 96.2 nM.
For `Oc1ccc2ncnc(Nc3ccc(OCc4cccc(F)c4)c(Cl)c3)c2c1`, the XC50 was 993 nM.
With `CC[C@H]1CN2CC[C@H]1C[C@H]2[C@H](O)c1cc(-c2cccc(C)c2)nc2ccc(OC)cc12` the XC50 was 163 nM.
For `CC(C)N1CCN(C(CN2CCN(CCCOc3ccc4nonc4c3)CC2)c2ccc(F)cc2)CC1` (stereo unspecified), the XC50 was 796 nM.
Work on `O=C(Nc1ccccc1)N1CCOC(CCN2CCC(F)(F)CC2)(c2ccc(Cl)c(Cl)c2)C1` (stereo unspecified) yielded an XC50 of 185 nM.
In the case of `Cc1cc2[nH]c(-c3ccc(C(=O)NCCCN4CCN(c5cccc(Cl)c5)CC4)s3)nc2cc1Cl`, the XC50 was 653 nM.
With `CN(C)CCN1CCN(Cc2cccc(-c3csc(-c4nc5ccccc5[nH]4)c3)c2)CC1` the XC50 was 398 nM.
In the case of `CN(C)c1ccc(-c2csc(C(=O)NC3CCN(CCC(C)(C)C)C3)c2)cc1` (stereo unspecified), the XC50 was 971 nM.
In the case of `O=C(Nc1cccc(-c2cccc(-c3nc4cc(C(F)(F)F)ccc4[nH]3)c2)c1)c1ccoc1`, the XC50 was 277 nM.
With `C=CCc1cc(OC)ccc1OCCCOc1c(C)nc(N)nc1N` the XC50 was 3.2 nM.
Work on `CCCS(=O)(=O)c1nc(S(=O)(=O)c2ccc(Cl)cc2)c(N2CCCCC2)s1` yielded an XC50 of 1290 nM.
`CCOC(=O)C(=CNc1ccc(Cc2cnc(N)nc2N)cc1CC)C(=O)OCC` was tested, and the XC50 was 1140 nM.
Work on `O=S(=O)(NCCN1CCCC1)c1ccc(-c2ccc(CNCc3ccc(F)cc3)cc2)cc1F` yielded an XC50 of 1280 nM.
`Cc1ccccc1Nc1nc(Nc2ccccc2)c2ccccc2n1` showed an XC50 of 998 nM.
In the case of `Cc1cc(O)c(-c2ccc(OCc3ccc(Cl)cc3)cc2)c(C)n1`, the XC50 was 732 nM.
Work on `Cn1cnc(CCNC(=O)c2ccc(-c3cccc(-c4nc5ccccc5[nH]4)c3)cc2)c1` yielded an XC50 of 1100 nM.
`Oc1ccc2[nH]cc(C3CCN(CCCCCCCCCN4CCC(c5c[nH]c6ccc(O)cc56)CC4)CC3)c2c1` was tested, and the XC50 was 314 nM.
Compound `O=S(=O)(c1cc(Cl)ccc1Cl)N1CCCCC(c2ccc(C(F)(F)F)cc2)=N1` has an XC50 of 998 nM.
Work on `COc1cc2nc(NCCCOC(C)C)n3nc(-c4ccccc4)nc3c2cc1OC` yielded an XC50 of 196 nM.
Compound `O=C(NC1CCN(CCCc2ccccc2)CC1)c1ccc(-c2cccc(C(F)(F)F)c2)s1` has an XC50 of 894 nM.
Work on `NCC1CCCN1Cc1cccc(-c2ccc(-c3nc4cc(C(F)(F)F)ccc4[nH]3)cc2)c1` (stereo unspecified) yielded an XC50 of 778 nM.
`Cc1cccc(OCC(=O)Nc2cccc(NC(=O)COc3cccc(C)c3)n2)c1` showed an XC50 of 671 nM.
Compound `COc1cccc(C(=O)NCCOc2ccccc2)c1Oc1ccccc1` has an XC50 of 918 nM.
`OCCN1CCN(Cc2ccc(-c3ccc(-c4nc5cc(F)ccc5[nH]4)cc3)cc2)CC1` showed an XC50 of 567 nM.
`O=C(C(=O)c1ccc(Nc2ccnc3cc(-c4ccccn4)ccc23)cc1)c1ccccc1` gave an XC50 of 966 nM.
In the case of `O=C(NCc1ccccc1)Nc1ccc(-c2cccc(-c3nc4cc(C(F)(F)F)ccc4[nH]3)c2)cc1`, the XC50 was 662 nM.
Compound `CCN1CCN(CCCNc2c3ccccc3nc3ccccc23)CC1` has an XC50 of 798 nM.
For `Nc1c(Cl)cc(C(O)CNCCCCCCCCCc2ccccn2)cc1Cl` (stereo unspecified), the XC50 was 863 nM.
`Fc1ccc2[nH]c(-c3cccc(-c4ccc(CNCc5ccccc5)cc4)c3)nc2c1` gave an XC50 of 266 nM.
Compound `COc1ccc(Cl)cc1N1CCN(CCCNC(=O)c2ccc(-c3nc4cc5ccccc5cc4[nH]3)c(F)c2)CC1` has an XC50 of 804 nM.
With `COCC(=O)N(Cc1ccccc1-c1cccc(CNCCc2ccccc2)c1)C1CCN(Cc2ccccc2)CC1` the XC50 was 1100 nM.
`O=C(Nc1cccc(F)c1)N(Cc1ccc(-c2ccc(CN3CCNCC3)cc2)cc1)C1CCN(Cc2ccccc2)CC1` showed an XC50 of 769 nM.
`OCC1CCN(Cc2cccc(-c3ccc(-c4nc5cc(C(F)(F)F)ccc5[nH]4)s3)c2)CC1` showed an XC50 of 588 nM.
Compound `CS(=O)(=O)Nc1ccc2c(C3CCN(CCC4CCN(C(=O)/C=C/c5ccc(Cl)c(Cl)c5)CC4)CC3)c[nH]c2c1` has an XC50 of 599 nM.
For `Cc1ccc(NC(=O)c2ccc3ncccc3c2)cc1OC1CCN(CCC(C)C)C1` (stereo unspecified), the XC50 was 351 nM.
`CCCCCCCCCn1c(NCc2cc(Cl)ccc2O)nc2ccccc21` was tested, and the XC50 was 825 nM.
Work on `COc1ccc2nccc([C@@H](O)CN3CCC(NC(=O)c4cccc(-c5cc(C)no5)c4)CC3)c2c1` yielded an XC50 of 345 nM.
In the case of `COc1cc2nc(NCCc3ccccc3)nc(NCc3cnn(C)c3C)c2cc1OC`, the XC50 was 711 nM.
In the case of `COc1ccc(CC2(c3ccc(F)cc3)N=C(N)N(CCCc3ccccc3)C2=O)cc1` (stereo unspecified), the XC50 was 613 nM.
For `COc1ccccc1C1CCN(C2CCC(NC(=O)/C=C/c3ccc(OC(F)(F)F)cc3)CC2)CC1` (stereo unspecified), the XC50 was 1350 nM.
`COc1ccccc1CCCON1C(=N)N=C(N)NC1(C)C` gave an XC50 of 3.2 nM.
For `Cc1[nH]c(C)c(-c2ccc(Oc3cccc(Cl)c3)cc2)c(=O)c1Cl`, the XC50 was 20.8 nM.
Work on `O=C1CCCC1Sc1nc2ccccc2c(=O)n1-c1ccc(Cl)c(Cl)c1` (stereo unspecified) yielded an XC50 of 726 nM.
`Cc1ccc(O)c(-c2cc(C(=O)Nc3ccc(S(=O)(=O)N4CCCCC4)cc3)[nH]n2)c1` showed an XC50 of 805 nM.
For `Cc1cccc2nc(-c3cccc(-c4cccc(NC(=O)c5ccoc5)c4)c3)[nH]c12`, the XC50 was 219 nM.
With `COc1ccccc1C1CCN(CCN2CCC(NC(=O)c3ccc(-c4ccc(C#N)cc4)cc3)CC2)CC1` the XC50 was 792 nM.
In the case of `O=C(NC1CCC(CCN2Cc3ccc(Br)cc3C2)CC1)c1cccc(-c2cccnc2)c1` (stereo unspecified), the XC50 was 927 nM.
For `COc1cc2nc(C)nc(Nc3ccc(Oc4ccccc4)cc3)c2cc1OC`, the XC50 was 720 nM.
`c1cc(CNCCN2CCNCC2)cc(-c2cccc(-c3nc4ccccc4[nH]3)c2)c1` gave an XC50 of 959 nM.
`Cc1[nH]c(C)c(-c2ccc(OCc3cc(C(F)(F)F)cc(C(F)(F)F)c3)nc2)c(=O)c1Br` showed an XC50 of 152 nM.
In the case of `O=C(c1cc(-c2cccs2)n[nH]1)N1CCN(S(=O)(=O)c2ccc(Cl)s2)CC1`, the XC50 was 868 nM.
Work on `CC(=O)c1cccc2cc(C(=O)NC3CCC(CCN4CCc5ccc(C#N)cc5C4)CC3)[nH]c12` (stereo unspecified) yielded an XC50 of 787 nM.
With `CN1CCC(C(=O)Nc2ccc(-c3cccc(-c4nc5cc(C(F)(F)F)ccc5[nH]4)c3)cc2)CC1` the XC50 was 577 nM.
In the case of `Cc1cccc2nc(-c3ccc(-c4cccc(CNCCCNS(C)(=O)=O)c4)s3)[nH]c12`, the XC50 was 1020 nM.
With `COc1ccc(CCc2ccc(-c3c(C)[nH]c(C)c(Cl)c3=O)cc2)cc1` the XC50 was 15.2 nM.
Compound `OC(CNc1ccnc(Nc2cccc(Cl)c2)n1)c1ccccc1C(F)(F)F` (stereo unspecified) has an XC50 of 902 nM.
In the case of `CCCCN(CCCC)Cc1cc(N(C)c2ccc([N+](=O)[O-])cn2)ccc1O`, the XC50 was 544 nM.
Work on `CCn1c(-c2nonc2N)nc2c(-c3ccc(CO)o3)ncc(OCCCN)c21` yielded an XC50 of 1360 nM.
Work on `Cc1ccc(-c2cc(C(=O)Nc3ccc(S(=O)(=O)N4CCOCC4)cc3)[nH]n2)c(O)c1C` yielded an XC50 of 920 nM.
Compound `CN1CCN(Cc2nc(-c3ccc4c(Nc5ccc(Oc6ccccc6)cc5)ccnc4c3)cs2)CC1` has an XC50 of 310 nM.
`Cc1cccc(-c2cccc3c(NC(=O)N4CCc5cc6nccc(N7CCN8CCC[C@H]8C7)c6cc54)cccc23)n1` showed an XC50 of 916 nM.
`CC(=O)NCCNc1nccc(N2CCc3ncnc(Nc4ccc(OCc5ccccn5)c(Cl)c4)c3C2)n1` gave an XC50 of 822 nM.
Compound `CCCCN1CCN(CCCNc2c3ccccc3nc3ccccc23)CC1` has an XC50 of 512 nM.
`Cc1cccc2nc(-c3cccc(-c4ccc(NC(=O)C5CCCO5)cc4)c3)[nH]c12` (stereo unspecified) showed an XC50 of 901 nM.
